Source: ChEMBL document CHEMBL2021919, “Computational analysis of structure-based interactions and ligand properties can predict efflux effects on antibiotics” (2012)
Values after ≈ are worked out from the molar mass of the structure shown.

Legend:
Escherichia coli [1] = experiment: Ratio of MIC for wild type Escherichia coli HS414 to MIC for acrB-deficient Escherichia coli HS832 by agar dilution method; type: functional
Escherichia coli [2] = experiment: Antimicrobial activity against wild type Escherichia coli expressing AcrAB-TolC efflux pump; type: functional
Escherichia coli [3] = experiment: Ratio of MIC for wild type Escherichia coli TG1 to MIC for acrB-deficient Escherichia coli KAM3 by two-fold serial dilution method; type: functional
Salmonella typhimurium = experiment: Ratio of MIC for wild type Salmonella typhimurium SH5014 to MIC for Salmonella typhimurium SH7616 harboring missense mutation in acrA/acrB gene by two-fold serial dilution method; type: functional, Salmonella enterica subsp. enterica serovar Typhimurium
Escherichia coli [4] = experiment: Ratio of MIC for wild type Escherichia coli JC7623 to MIC for acrAB-deficient Escherichia coli JZM120; type: functional
Escherichia coli [5] = experiment: Ratio of MIC for wild type Escherichia coli ECM1194 to MIC for acrAB-deficient Escherichia coli ECM1694; type: functional

Structure (SMILES)	Ratio (Escherichia coli [1])	MIC (Escherichia coli [2]) [µg/mL]	Ratio (Escherichia coli [3])	Ratio (Salmonella typhimurium)	Ratio (Escherichia coli [4])	Ratio (Escherichia coli [5])
CS(=O)(=O)c1ccc([C@@H](O)[C@@H](CF)NC(=O)C(Cl)Cl)cc1 [FLORFENICOL]	8	6.25 (≈ 17.4 µM)	–	–	–	–
CC1(C)S[C@@H]2[C@H](NC(=O)C(c3ccccc3)S(=O)(=O)O)C(=O)N2[C@H]1C(=O)O (stereo partly specified) [SULBENICILLIN]	–	8 (≈ 19.3 µM)	1	4	–	–
C[C@H]1[C@H](NC(=O)/C(=N\OC(C)(C)C(=O)O)c2csc(N)n2)C(=O)N1S(=O)(=O)O [AZTREONAM]	–	0.05 (≈ 0.115 µM)	1	–	–	–
CO/N=C(\C(=O)N[C@@H]1C(=O)N2C(C(=O)[O-])=C(C[N+]3(C)CCCC3)CS[C@H]12)c1csc(N)n1	–	0.0075 (≈ 0.0156 µM)	–	1	1	–
CC1(C)S[C@@H]2[C@H](NC(=O)CCC[C@@H](N)C(=O)O)C(=O)N2[C@H]1C(=O)O [ADICILLIN]	–	8 (≈ 22.3 µM)	–	1	–	–
O=C(Cc1cccs1)N[C@@H]1C(=O)N2C(C(=O)[O-])=C(C[n+]3ccccc3)CS[C@H]12 [CEPHALORIDINE]	–	2 (≈ 4.81 µM)	–	2	2	–
O=C(N[C@H](CO)[C@H](O)c1ccc([N+](=O)[O-])cc1)C(Cl)Cl [CHLORAMPHENICOL]	8	4 (≈ 12.4 µM)	–	–	–	4
CO/N=C(\C(=O)N[C@@H]1C(=O)N2C(C(=O)O)=C(COC(N)=O)CS[C@H]12)c1ccco1 [CEFUROXIME]	–	1.56 (≈ 3.68 µM)	8	–	16	–
Cc1onc(-c2ccccc2Cl)c1C(=O)N[C@@H]1C(=O)N2[C@@H]1SC(C)(C)[C@@H]2C(=O)O [CLOXACILLIN]	–	256 (≈ 587 µM)	128	256	128	–
Cc1nnc(SCC2=C(C(=O)O)N3C(=O)[C@@H](NC(=O)Cn4cnnn4)[C@H]3SC2)s1 [CEFAZOLIN]	–	0.39 (≈ 0.858 µM)	–	1	1	–
CO/N=C(\C(=O)N[C@@H]1C(=O)N2C(C(=O)O)=C(CSc3nc(=O)c(O)nn3C)CS[C@H]12)c1csc(N)n1 [CEFTRIAXONE]	–	0.015 (≈ 0.027 µM)	–	2	1	–
CO/N=C(\C(=O)N[C@@H]1C(=O)N2C(C(=O)[O-])=C(C[n+]3cccc4c3CCC4)CS[C@H]12)c1csc(N)n1 [CEFPIROME]	–	0.015 (≈ 0.0291 µM)	–	–	1	–
CC1(C)S[C@@H]2[C@H](NC(=O)C(C(=O)O)c3ccccc3)C(=O)N2[C@H]1C(=O)O (stereo partly specified) [CARBENICILLIN]	–	1.56 (≈ 4.12 µM)	1	4	1	–
CC(=O)OCC1=C(C(=O)O)N2C(=O)[C@@H](NC(=O)Cc3cccs3)[C@H]2SC1 [CEPHALOTHIN]	–	2 (≈ 5.04 µM)	–	–	–	–
CC1(C)S[C@@H]2[C@H](NC(=O)[C@H](NC(=O)N3CCN(S(C)(=O)=O)C3=O)c3ccccc3)C(=O)N2[C@H]1C(=O)O [MEZLOCILLIN]	–	1 (≈ 1.85 µM)	–	–	32	–
CO[C@@H]1[C@@H](OC(N)=O)[C@@H](O)[C@H](Oc2ccc3c(O)c(NC(=O)c4ccc(O)c(CC=C(C)C)c4)c(=O)oc3c2C)OC1(C)C [NOVOBIOCIN]	64	32 (≈ 52.2 µM)	64	–	32	–
CC[n+]1c(-c2ccccc2)c2cc(N)ccc2c2ccc(N)cc21.[Br-] [HOMIDIUM BROMIDE]	256	800	–	–	–	–
C[C@@H](O)[C@H]1C(=O)N2C(C(=O)O)=C([C@H]3CCCO3)S[C@H]12 [FAROPENEM]	–	0.39 (≈ 1.37 µM)	4	–	–	–
CCn1cc(C(=O)O)c(=O)c2cc(F)c(N3CCNCC3)cc21 [NORFLOXACIN]	1	0.004 (≈ 0.0125 µM)	–	–	–	–
CO/N=C(\C(=O)N[C@@H]1C(=O)N2C(C(=O)O)=C(COC(C)=O)CS[C@H]12)c1csc(N)n1 [CEFOTAXIME]	–	0.12 (≈ 0.263 µM)	2	4	–	–
Cc1onc(-c2ccccc2)c1C(=O)N[C@@H]1C(=O)N2[C@@H]1SC(C)(C)[C@@H]2C(=O)O [OXACILLIN]	–	1020 (≈ 2550 µM)	256	–	512	–

Structure (SMILES)	Ratio (Escherichia coli [1])	MIC (Escherichia coli [2]) [µg/mL]	Ratio (Escherichia coli [3])	Ratio (Salmonella typhimurium)	Ratio (Escherichia coli [4])	Ratio (Escherichia coli [5])
Nc1ccc2cc3ccc(N)cc3nc2c1 [PROFLAVINE]	8	100 (≈ 478 µM)	–	–	–	–
Cn1nnnc1SCC1=C(C(=O)O)N2C(=O)[C@@H](NC(=O)[C@H](O)c3ccccc3)[C@H]2SC1 [CEFAMANDOLE]	–	4 (≈ 8.65 µM)	4	–	4	–
CCN1CCN(C(=O)N[C@@H](C(=O)N[C@@H]2C(=O)N3C(C(=O)O)=C(CSc4nnnn4C)CS[C@H]23)c2ccc(O)cc2)C(=O)C1=O [CEFOPERAZONE]	–	0.03 (≈ 0.0465 µM)	–	–	2	–
CC(C)(O/N=C(\C(=O)N[C@@H]1C(=O)N2C(C(=O)[O-])=C(C[n+]3ccccc3)CS[C@H]12)c1csc(N)n1)C(=O)O [CEFTAZIDIME]	–	0.12 (≈ 0.22 µM)	–	–	1	–
CC(=O)NS(=O)(=O)c1ccc(N)cc1 [SULFACETAMIDE]	1	2000 (≈ 9340 µM)	–	–	–	–
CC(=O)OCC1=C(C(=O)O)N2C(=O)[C@@H](NC(=O)CCC[C@@H](N)C(=O)O)[C@H]2SC1 [CEPHALOSPORIN C]	–	16 (≈ 38.5 µM)	–	1	–	–
CC1(C)S[C@@H]2[C@H](/N=C/N3CCCCCC3)C(=O)N2[C@H]1C(=O)O [AMDINOCILLIN]	–	0.5 (≈ 1.54 µM)	–	–	2	–
CC1(C)S[C@@H]2[C@H](NC(=O)[C@H](NC(=O)N3CCNC3=O)c3ccccc3)C(=O)N2[C@H]1C(=O)O [AZLOCILLIN]	–	16 (≈ 34.7 µM)	–	–	4	–
CN(C)[C@@H]1C(O)=C(C(N)=O)C(=O)[C@@]2(O)C(O)=C3C(=O)c4c(O)cccc4[C@@](C)(O)[C@H]3C[C@@H]12 [TETRACYCLINE]	8	1.25 (≈ 2.81 µM)	–	–	–	–
CC1(C)S[C@@H]2[C@H](NC(=O)[C@H](N)c3ccc(O)cc3)C(=O)N2[C@H]1C(=O)O [AMOXICILLIN]	–	4 (≈ 10.9 µM)	–	–	1	–
CC1(C)S[C@@H]2[C@H](NC(=O)Cc3ccccc3)C(=O)N2[C@H]1C(=O)O [PENICILLIN G]	–	8 (≈ 23.9 µM)	–	32	2	–
CO[C@@]1(NC(=O)C(C(=O)[O-])c2ccc(O)cc2)C(=O)N2C(C(=O)[O-])=C(CSc3nnnn3C)CO[C@@H]21.[Na+].[Na+] (stereo partly specified) [MOXALACTAM DISODIUM]	–	0.12	–	1	–	–
CO[C@@]1(NC(=O)Cc2cccs2)C(=O)N2C(C(=O)O)=C(COC(N)=O)CS[C@@H]21 [CEFOXITIN]	–	4 (≈ 9.36 µM)	–	4	4	–
NC(=O)c1cc[n+](CC2=C(C(=O)[O-])N3C(=O)[C@@H](NC(=O)[C@@H](c4ccccc4)S(=O)(=O)O)[C@H]3SC2)cc1 [CEFSULODIN]	–	16 (≈ 30 µM)	–	1	1	–
C[n+]1c2cc(N)ccc2cc2ccc(N)cc21.[Cl-] [EUFLAVINE]	128	400	–	–	–	–
CO[C@@]1(NC(=O)CSCC#N)C(=O)N2C(C(=O)O)=C(CSc3nnnn3C)CS[C@@H]21 [CEFMETAZOLE]	–	0.05 (≈ 0.106 µM)	2	1	1	–
CCOc1ccc2ccccc2c1C(=O)N[C@@H]1C(=O)N2[C@@H]1SC(C)(C)[C@@H]2C(=O)O [NAFCILLIN]	–	200 (≈ 483 µM)	128	–	–	–
CCN1CCN(C(=O)N[C@@H](C(=O)N[C@@H]2C(=O)N3[C@@H]2SC(C)(C)[C@@H]3C(=O)O)c2ccccc2)C(=O)C1=O [PIPERACILLIN]	–	4 (≈ 7.73 µM)	–	–	–	–
CN(Cc1cnc2nc(N)nc(N)c2n1)c1ccc(C(=O)N[C@@H](CCC(=O)O)C(=O)O)cc1 [METHOTREXATE]	8	640 (≈ 1410 µM)	–	–	–	–
CCn1cc(C(=O)O)c(=O)c2ccc(C)nc21 [NALIDIXIC ACID]	2	3.12 (≈ 13.5 µM)	–	–	–	–
